These results are taken from patent US12643912B2, “Macrocyclic compounds, a process for their preparation and pharmaceutical compositions containing them” (LES LABORATOIRES SERVIER, priority 2020, dated 2026).

One test relates to Nrf2 (Keap1-NRF2 nuclear translocation). Put plainly: U2OS translocation assay (PathHunter U2OS Keap1-NRF2 Nuclear Translocation Cell Line). It is filed as cell-based. The note with it: Homo sapiens, U2OS, 3 h, read-out: CELLULAR U2OS EC50 (nM), U2OS Keap1-NRF2 nuclear translocation cells, 3 h incubation, luminescence, normalized between 1% DMSO and 10 μM andrographolide. The procedure: EXAMPLE 84: U2OS—TRANSLOCATION ASSAY
U2OS cell have been stably transduced using MMLV-derived retroviral vector, to overexpress Nrf2-Enzyme Donor fusion protein, and Acceptor Enzyme in the nucleus (PathHunter® U2OS Keap1-NRF2 Nuclear Translocation Cell Line, Ref.93-0821C3, DiscoverX).
PathHunter U2OS cells were grown in Minimum Essential Medium (MEM) (Ref.30-2003, ATCC), 10% FBS (Ref.P30-193306, PanBiotech), 500 μg/ml Geneticine, 250 μg/ml hygromycine, 0.25 μg/ml puromycine (10131-027, 10687-010 and Ref.A1113802 respectively, Life Technologies).
The night before experiment, cells were harvested using Tryple Xpress (Ref.126905, Bibco) for 5 min at 37° C., resuspended in Opti-MEM™ (Ref.31985-047, Gibco), 1% FBS (Ref.P30-193306, PanBiotech) and then plated into 384 wells plates (Ref.6007680, Perkin Elmer) at the density of 7 500 cells/well in 20 μl. Cell are stored over night at 37° C., 5% CO2 until used. Compounds in 100% DMSO (0.315 μl/well) were resuspended in 20 μl MEM, 1% FBS, 3.4% DMSO. Compounds and andrographolide (10 μM final concentration; Ref.365645-500MG, Aldrich)) as positive control, were dispensed on cell, 5 μl /well, and then incubated for 3 h at 37° C. and 5% CO2. After incubation, Path hunter reagents were dispensed on cells (12 μl /well, Ref.93-0001, DiscoverX) and incubated for 60 min at room temperature in the dark.
Then, luminescence signal was measured using multimodal reader (Pherastar, BMG Labtech). Data were normalized between 1% DMSO (basal signal) and 10 μM andrographolide (positive signal) and analyzed using Activity Base software.
On to `COc1ccc2cc1[C@@H](C)N1Cc3cc(ccc3OS1(=O)=O)OCCOCCn1nnc3c(C)c(ccc31)[C@H]2CC(=O)O` [Example 41a], for which the EC50 turned out to be 716 nM. On the same count and under the same terms, to `COc1ccc2cc1[C@@H](C)N1Cc3cc(ccc3OS1(=O)=O)OCCOCCn1nnc3c(C)c(ccc31)[C@@H]2CC(=O)O` [Example 41b] belongs more than 3160 nM.

As for `Cc1ccc2cc1[C@@H](C)N1Cc3cc(ccc3OS1(=O)=O)OC[C@@H](O)CCn1nnc3c(C)c(ccc31)[C@H]2CC(=O)O` [Example 46a, [(2R,8RS,19S)-19-Hydroxy-2,4,31-trimethyl-27,27-dioxo-21,26-dioxa-27λ^6-thia-1,14,15,16-tetraazahexacyclo[20.5.3.1^3,70.1^9,130.0^12,160.0^25,29]dotriaconta-3(32),4,6,9(31),10,12,14,22,24,29-decaen-8-yl]acetic acid], the EC50 came to 228 nM. On to `Cc1ccc2cc1[C@@H](C)N1Cc3cc(ccc3OS1(=O)=O)OC[C@@H](O)CCn1nnc3c(C)c(ccc31)[C@@H]2CC(=O)O` [Example 46b, [(2R,8RS,19S)-19-hydroxy-2,4,31-trimethyl-27,27-dioxo-21,26-dioxa-27λ^6-thia-1,14,15,16-tetraazahexacyclo[20.5.3.1^3,70.1^9,130.0^12,160.0^25,29]dotriaconta-3(32),4,6,9(31),10,12,14,22,24,29-decaen-8-yl]acetic acid], for which the EC50 was determined as 792 nM.

`COc1ccc2cc1CN1Cc3cc(ccc3OS1(=O)=O)OCCN(C)CCCCn1nnc3c(C)c(ccc31)C2CC(=O)O` (centres unmarked) [Example 47]: the EC50 was found to be 288 nM. The same measure, in the same setting: to `Cc1ccc2cc1CN1Cc3cc(ccc3OS1(=O)=O)OCCCCn1nnc3c(C)c(cc(Br)c31)[C@@H]2CC(=O)O` [Example 48, [(8R)-11-Bromo-4,31-dimethyl-27,27-dioxo-21,26-dioxa-27λ^6-thia-1,14,15,16-tetraazahexacyclo[20.5.3.1^3,70.1^9,130.0^12,160.0^25,29]dotriaconta-3(32),4,6,9(31),10,12,14,22,24,29-decaen-8-yl]acetic acid] belongs 198 nM. Same read-out and setting: to `COc1ccc2cc1CN1Cc3cc(ccc3OS1(=O)=O)OCCOCCn1nnc3c(C)c(ccc31)C2CC(=O)O` (centres unmarked) [Example 59b, [4-Methoxy-32-methyl-28,28-dioxo-19,22,27-trioxa-28λ^6-thia-1,14,15,16-tetraazahexacyclo[21.5.3.1^3,70.1^9,130.0^12,160.0^26,30]tritriaconta-3(33),4,6,9(32),10,12,14,23,25,30-decaen-8-yl]acetic acid] belongs 1760 nM. Same read-out and setting: in the case of `Cc1ccc2cc1CN1Cc3cc(ccc3OS1(=O)=O)OCc1ccccc1CCn1nnc3c(C)c(ccc31)C2CC(=O)O` (centres unmarked) [Example 62b, [4,36-Dimethyl-32,32-dioxo-26,31-dioxa-32λ^6-thia-1,14,15,16-tetraazaheptacyclo[25.5.3.1^3,70.1^9,130.0^12,160.0^19,240.0^30,34]heptatriaconta-3(37),4,6,9(36),10,12,14,19,21,23,27,29,34-tridecaen-8-yl]acetic acid] it was more than 3160 nM. In the case of `Cc1ccc2cc1CN1Cc3cc(ccc3OS1(=O)=O)OCCSCCn1nnc3c(C)c(ccc31)C2CC(=O)O` (centres unmarked) [Example 63b, [4,32-Dimethyl-28,28-dioxo-22,27-dioxa-19,28λ^6-dithia-1,14,15,16-tetraazahexacyclo[21.5.3.1^3,70.1^9,130.0^12,160.0^26,30]tritriaconta-3(33),4,6,9(32),10,12,14,23,25,30-decaen-8-yl]acetic acid], the EC50 was 1220 nM. For the molecule `Cc1c2ccc3c1nnn3CCCCOc1ccc3c(c1)CN([C@H](C)c1cc(ccc1Cl)[C@H]2CC(=O)O)S(=O)(=O)O3` [Example 64b, [(2R,8R)-4-chloro-2,31-dimethyl-27,27-dioxo-21,26-dioxa-27λ^6-thia-1,14,15,16-tetraazahexacyclo[20.5.3.1^3,70.1^9,130.0^12,160.0^25,29]dotriaconta-3(32),4,6,9(31),10,12,14,22,24,29-decaen-8-yl]acetic acid], the concentration giving a half-maximal response (EC50) is 231 nM. As to `Cc1ccc2cc1CN1Cc3cc(ccc3OS1(=O)=O)OCCC(c1ccc(C(F)(F)F)cc1)Cn1nnc3c(C)c(ccc31)C2CC(=O)O` (centres unmarked) [Example 65, {4,31-Dimethyl-27,27-dioxo-18-[4-(trifluoromethyl)phenyl]-21,26-dioxa-27λ^6-thia-1,14,15,16-tetraazahexacyclo[20.5.3.1^3,70.1^9,130.0^12,160.0^25,29]dotriaconta-3(32),4,6,9(31),10,12,14,22,24,29-decaen-8-yl}acetic acid], the EC50 turned out to be 699 nM. Same read-out and setting: to `Cc1ccc2cc1CN1Cc3cc(ccc3OS1(=O)=O)Oc1ccccc1NCCCn1nnc3c(C)c(ccc31)C2CC(=O)O` (centres unmarked) [Example 71b, [4,37-Dimethyl-33,33-dioxo-27,32-dioxa-33λ^6-thia-1,14,15,16,20-pentaazaheptacyclo[26.5.3.1^3,70.1^9,130.0^12,160.0^21,260.0^31,35]octatriaconta-3(38),4,6,9(37),10,12,14,21,23,25,28,30,35-tridecaen-8-yl]acetic acid] belongs 570 nM. `Cc1ccc2cc1CN1Cc3cc(c(Cl)cc3OS1(=O)=O)OCCOCCn1nnc3c(C)c(ccc31)C2CC(=O)O` (centres unmarked) [Example 75, [24-Chloro-4,32-dimethyl-28,28-dioxo-19,22,27-trioxa-28λ^6-thia-1,14,15,16-tetraazahexacyclo[21.5.3.1^3,70.1^9,130.0^12,160.0^26,30]tritriaconta-3(33),4,6,9(32),10,12,14,23,25,30-decaen-8-yl]acetic acid]: the EC50 was 59.6 nM. The same measure, in the same setting: in the case of `Cc1ccc2cc1CN1Cc3cc(ccc3OS1(=O)=O)OCCn1nnc3c(C)c(ccc31)C2CC(=O)O` (centres unmarked) [Example 77a, [4,29-Dimethyl-25,25-dioxo-19,24-dioxa-25λ^6-thia-1,14,15,16-tetraazahexacyclo[18.5.3.1^3,70.1^9,130.0^12,160.0^23,27]triaconta-3(30),4,6,9(29),10,12,14,20,22,27-decaen-8-yl]acetic acid] it was 1750 nM; in that of `Cc1ccc2cc1CN1Cc3cc(ccc3OS1(=O)=O)OCCCCn1nnc3c(C)c(ccc31)[C@@H]2CC(=O)Nc1cncnc1` [Example 79a, 2-[(8R)-4,31-Dimethyl-27,27-dioxo-21,26-dioxa-27λ^6-thia-1,14,15,16-tetraazahexacyclo[20.5.3.1^3,70.1^9,130.0^12,160.0^25,29]dotriaconta-3(32),4,6,9(31),10,12,14,22,24,29-decaen-8-yl]-N-(pyrimidin-5-yl)acetamide], 1120 nM. On the same count and under the same terms, to `Cc1ccc2cc1CN1Cc3cc(ccc3OS1(=O)=O)OCCCCn1nnc3c(C)c(ccc31)[C@H]2CC(=O)Nc1cncnc1` [Example 79b, 2-[(8S)-4,31-dimethyl-27,27-dioxo-21,26-dioxa-27λ^6-thia-1,14,15,16-tetraazahexacyclo[20.5.3.1^3,70.1^9,130.0^12,160.0^25,29]dotriaconta-3(32),4,6,9(31),10,12,14,22,24,29-decaen-8-yl]-N-(pyrimidin-5-yl)acetamide] belongs 296 nM.

The same test, now with this note: read-out: CELLULAR U2OS EC50; U2OS Keap1-NRF2 nuclear translocation cells, 3 h incubation, luminescence, normalized between 1% DMSO and 10 μM andrographolide.
As for `Cc1ccc2cc1CN1Cc3cc(ccc3OS1(=O)=O)OCCn1nnc3c(C)c(ccc31)C2CC(=O)O` (centres unmarked) [Example 77b, [4,29-Dimethyl-25,25-dioxo-19,24-dioxa-25λ^6-thia-1,14,15,16-tetraazahexacyclo[18.5.3.1^3,70.1^9,130.0^12,160.0^23,27]triaconta-3(30),4,6,9(29),10,12,14,20,22,27-decaen-8-yl]acetic acid], the EC50 was more than 3160 nM.
